Laboratory results reported in patent US12077503B2, “Substituted cyclic amides and their use as herbicides” (FMC CORPORATION, priority 2015, dated 2024).

Legend:
Format in all cases: in vivo
[1] = test system: velvetleaf (Abutilon theophrasti); assay: Test G Pre-Emergence Protocol; conditions: Abutilon theophrasti, pre-emergence, 312 h, evaluated after 13 days; for pest or weed control at 15.625 g/ha: 15.625 g ai/ha; for pest or weed control at 15.625 g/ha / pest or weed control at 250 g/ha: read-out: Velvetleaf damage rating (100=total damage to plant; 0=no damage to plant); for pest or weed control at 62.5 g/ha: 62.5 g ai/ha, 100=total damage to plant, 0=no damage to plant, read-out: plant damage rating, Velvetleaf; for pest or weed control at 250 g/ha: 250 g ai/ha
Procedure: (§1) Seeds of corn (Zea mays), giant foxtail (Setaria faberi), barnyardgrass (Echinochloa crus-galli), ivy-leaved morning glory (Ipomoea hederacea), redroot pigweed (Amaranthus retroflexus) and velvetleaf (Abutilon theophrasti) were sown in standard soil in pots. After cultivation for one day under controlled conditions in a glasshouse (at 24/16° C., day/night; 14 hours light; 65% humidity), the plants were sprayed with an aqueous spray solution derived from the formulation of the technical active ingredient in acetone/water (50:50) solution containing 0.5% Tween 20 (polyoxyethylene sorbitan monolaurate, CAS RN 9005-64-5) to give a final dose of 15.625, 62.5 or 250 g/ha of test compound.
(§2) The test plants were then grown on under controlled conditions in a glasshouse (at 24/16° C., day/night; 14 hours light; 65% humidity) and watered twice daily. After 13 days the test was evaluated (100=total damage to plant; 0=no damage to plant). A dash (-) means no test result.

[2] = test system: ivy-leaved morning glory (Ipomoea hederacea); assay: Test G Pre-Emergence Protocol; conditions: Ipomoea, pre-emergence, 312 h, evaluated after 13 days; for pest or weed control at 15.625 g/ha: 15.625 g ai/ha, read-out: Morning-glory, Ivy-leaved damage rating (100=total damage to plant; 0=no damage to plant); for pest or weed control at 62.5 g/ha: 62.5 g ai/ha, 100=total damage to plant, 0=no damage to plant, read-out: plant damage rating, Morningglory, Ivy-leaved; for pest or weed control at 250 g/ha: 250 g ai/ha, read-out: Morningglory, Ivy-leaved damage rating (100=total damage to plant; 0=no damage to plant)
Procedure: as §1, §2

[3] = test system: giant foxtail (Setaria faberi); assay: Test G Pre-Emergence Protocol; conditions: Setaria faberi, pre-emergence, 312 h, evaluated after 13 days; for pest or weed control at 15.625 g/ha: 15.625 g ai/ha; for pest or weed control at 15.625 g/ha / pest or weed control at 250 g/ha: read-out: Foxtail, Giant damage rating (100=total damage to plant; 0=no damage to plant); for pest or weed control at 62.5 g/ha: 62.5 g ai/ha, 100=total damage to plant, 0=no damage to plant, read-out: plant damage rating, Foxtail, Giant; for pest or weed control at 250 g/ha: 250 g ai/ha
Procedure: as §1, §2

[4] = test system: redroot pigweed (Amaranthus retroflexus); assay: Test G Pre-Emergence Protocol; conditions: Amaranthus retroflexus, pre-emergence, 312 h, evaluated after 13 days; for pest or weed control at 15.625 g/ha: 15.625 g ai/ha; for pest or weed control at 15.625 g/ha / pest or weed control at 250 g/ha: read-out: Pigweed, Redroot damage rating (100=total damage to plant; 0=no damage to plant); for pest or weed control at 62.5 g/ha: 62.5 g ai/ha, 100=total damage to plant, 0=no damage to plant, read-out: plant damage rating, Pigweed, Redroot; for pest or weed control at 250 g/ha: 250 g ai/ha
Procedure: as §1, §2

corn (Zea mays) [5] = assay: Test G Pre-Emergence Protocol; conditions: Zea mays, pre-emergence, 312 h, evaluated after 13 days; for plant injury at 15.625 g/ha: 15.625 g ai/ha; for plant injury at 15.625 g/ha / plant injury at 250 g/ha: read-out: Corn damage rating (100=total damage to plant; 0=no damage to plant); for plant injury at 62.5 g/ha: 62.5 g ai/ha, 100=total damage to plant, 0=no damage to plant, read-out: plant damage rating, Corn; for plant injury at 250 g/ha: 250 g ai/ha
Procedure: as §1, §2

[6] = test system: barnyardgrass (Echinochloa crus-galli); assay: Test G Pre-Emergence Protocol; conditions: Echinochloa crus-galli, pre-emergence, 312 h, evaluated after 13 days; for pest or weed control at 15.625 g/ha: 15.625 g ai/ha, read-out: Barnyard grass damage rating (100=total damage to plant; 0=no damage to plant); for pest or weed control at 62.5 g/ha: 62.5 g ai/ha, 100=total damage to plant, 0=no damage to plant, read-out: plant damage rating, Barnyardgrass; for pest or weed control at 250 g/ha: 250 g ai/ha, read-out: Barnyardgrass damage rating (100=total damage to plant; 0=no damage to plant)
Procedure: as §1, §2

[7] = test system: velvetleaf (Abutilon theophrasti); assay: Test G Post-Emergence Protocol; conditions: Abutilon theophrasti, post-emergence, 312 h; for pest or weed control at 15.625 g/ha: 15.625 g ai/ha, evaluated after 13 days (100=total damage to plant; 0=no damage to plant), read-out: Velvetleaf damage rating; for pest or weed control at 62.5 g/ha: 62.5 g ai/ha, read-out: Velvetleaf damage rating (100=total damage to plant; 0=no damage to plant); for pest or weed control at 62.5 g/ha / pest or weed control at 250 g/ha: evaluated after 13 days; for pest or weed control at 250 g/ha: 250 g ai/ha, read-out: damage to plant, Velvetleaf (100=total damage to plant; 0=no damage to plant)
Procedure: as §1, with “8 days” for “one day”
as §2

[8] = test system: ivy-leaved morning glory (Ipomoea hederacea); assay: Test G Post-Emergence Protocol; conditions: Ipomoea, post-emergence, 312 h; for pest or weed control at 15.625 g/ha: 15.625 g ai/ha, evaluated after 13 days (100=total damage to plant; 0=no damage to plant), read-out: Morningglory, Ivy-leaved damage rating; for pest or weed control at 62.5 g/ha: 62.5 g ai/ha, read-out: Morningglory, Ivy-leaved damage rating (100=total damage to plant; 0=no damage to plant); for pest or weed control at 62.5 g/ha / pest or weed control at 250 g/ha: evaluated after 13 days; for pest or weed control at 250 g/ha: 250 g ai/ha, read-out: damage to plant, Morningglory, Ivy-leaved (100=total damage to plant; 0=no damage to plant)
Procedure: as §1, with “8 days” for “one day”
as §2

[9] = test system: giant foxtail (Setaria faberi); assay: Test G Post-Emergence Protocol; conditions: Setaria faberi, post-emergence, 312 h; for pest or weed control at 15.625 g/ha: 15.625 g ai/ha, evaluated after 13 days (100=total damage to plant; 0=no damage to plant), read-out: Foxtail, Giant damage rating; for pest or weed control at 62.5 g/ha: 62.5 g ai/ha, read-out: Foxtail, Giant damage rating (100=total damage to plant; 0=no damage to plant); for pest or weed control at 62.5 g/ha / pest or weed control at 250 g/ha: evaluated after 13 days; for pest or weed control at 250 g/ha: 250 g ai/ha, read-out: damage to plant, Foxtail, Giant (100=total damage to plant; 0=no damage to plant)
Procedure: as §1, with “8 days” for “one day”
as §2

[10] = test system: redroot pigweed (Amaranthus retroflexus); assay: Test G Post-Emergence Protocol; conditions: Amaranthus retroflexus, post-emergence, 312 h; for pest or weed control at 15.625 g/ha: 15.625 g ai/ha, evaluated after 13 days (100=total damage to plant; 0=no damage to plant), read-out: Pigweed, Redroot damage rating; for pest or weed control at 62.5 g/ha: 62.5 g ai/ha, read-out: Pigweed, Redroot damage rating (100=total damage to plant; 0=no damage to plant); for pest or weed control at 62.5 g/ha / pest or weed control at 250 g/ha: evaluated after 13 days; for pest or weed control at 250 g/ha: 250 g ai/ha, read-out: damage to plant, Pigweed, Redroot (100=total damage to plant; 0=no damage to plant)
Procedure: as §1, with “8 days” for “one day”
as §2

corn (Zea mays) [11] = assay: Test G Post-Emergence Protocol; conditions: Zea mays, post-emergence, 312 h; for plant injury at 15.625 g/ha: 15.625 g ai/ha, evaluated after 13 days (100=total damage to plant; 0=no damage to plant), read-out: Corn damage rating; for plant injury at 62.5 g/ha: 62.5 g ai/ha, read-out: Corn damage rating (100=total damage to plant; 0=no damage to plant); for plant injury at 62.5 g/ha / plant injury at 250 g/ha: evaluated after 13 days; for plant injury at 250 g/ha: 250 g ai/ha, read-out: damage to plant, Corn (100=total damage to plant; 0=no damage to plant)
Procedure: as §1, with “8 days” for “one day”
as §2

[12] = test system: barnyardgrass (Echinochloa crus-galli); assay: Test G Post-Emergence Protocol; conditions: Echinochloa crus-galli, post-emergence, 312 h; for pest or weed control at 15.625 g/ha: 15.625 g ai/ha, evaluated after 13 days (100=total damage to plant; 0=no damage to plant), read-out: Barnyardgrass damage rating; for pest or weed control at 62.5 g/ha: 62.5 g ai/ha, read-out: Barnyardgrass damage rating (100=total damage to plant; 0=no damage to plant); for pest or weed control at 62.5 g/ha / pest or weed control at 250 g/ha: evaluated after 13 days; for pest or weed control at 250 g/ha: 250 g ai/ha, read-out: damage to plant, Barnyardgrass (100=total damage to plant; 0=no damage to plant)
Procedure: as §1, with “8 days” for “one day”
as §2

Row | SMILES | pest or weed control at 15.625 g/ha [1] | pest or weed control at 62.5 g/ha [1] | pest or weed control at 250 g/ha [1] | pest or weed control at 15.625 g/ha [2] | pest or weed control at 62.5 g/ha [2] | pest or weed control at 250 g/ha [2] | pest or weed control at 15.625 g/ha [3] | pest or weed control at 62.5 g/ha [3] | pest or weed control at 250 g/ha [3] | pest or weed control at 15.625 g/ha [4] | pest or weed control at 62.5 g/ha [4] | pest or weed control at 250 g/ha [4] | plant injury at 15.625 g/ha (corn (Zea mays) [5]) | plant injury at 62.5 g/ha (corn (Zea mays) [5]) | plant injury at 250 g/ha (corn (Zea mays) [5]) | pest or weed control at 15.625 g/ha [6] | pest or weed control at 62.5 g/ha [6] | pest or weed control at 250 g/ha [6] | pest or weed control at 15.625 g/ha [7] | pest or weed control at 62.5 g/ha [7] | other results
1 | Cc1c(F)ccc(NC(=O)[C@@H]2C(=O)N(C)C[C@H]2c2ccc(C(F)(F)F)cc2)c1F (racemic) [Compound 1629] | 0% | 0% | 0% | 10% | 40% | 50% | 30% | 50% | 80% | 0% | 0% | 0% | 0% | 10% | 0% | 10% | 0% | 70% | 20% | 10% | pest or weed control at 250 g/ha [7]: 0%; pest or weed control at 15.625 g/ha [8]: 20%; pest or weed control at 62.5 g/ha [8]: 20%; pest or weed control at 250 g/ha [8]: 30%; pest or weed control at 15.625 g/ha [9]: 0%; pest or weed control at 62.5 g/ha [9]: 80%; pest or weed control at 250 g/ha [9]: 80%; pest or weed control at 15.625 g/ha [10]: 10%; pest or weed control at 62.5 g/ha [10]: 10%; pest or weed control at 250 g/ha [10]: 30%; plant injury at 15.625 g/ha (corn (Zea mays) [11]): 0%; plant injury at 62.5 g/ha (corn (Zea mays) [11]): 10%; plant injury at 250 g/ha (corn (Zea mays) [11]): 10%; pest or weed control at 15.625 g/ha [12]: 0%; pest or weed control at 62.5 g/ha [12]: 30%; pest or weed control at 250 g/ha [12]: 70%
2 | CN1C[C@@H](c2ccc(C(F)(F)F)cc2)[C@H](C(=O)Nc2ccc(F)cc2C(F)(F)F)C1=O (racemic) [Compound 1616] | 0% | 0% | 50% | 0% | 0% | 20% | 0% | 80% | 90% | 0% | 20% | 60% | 0% | 0% | 0% | 0% | 0% | 60% | 10% | 0% | pest or weed control at 250 g/ha [7]: 30%; pest or weed control at 15.625 g/ha [8]: 0%; pest or weed control at 62.5 g/ha [8]: 10%; pest or weed control at 250 g/ha [8]: 20%; pest or weed control at 15.625 g/ha [9]: 40%; pest or weed control at 62.5 g/ha [9]: 20%; pest or weed control at 250 g/ha [9]: 80%; pest or weed control at 15.625 g/ha [10]: 20%; pest or weed control at 62.5 g/ha [10]: 50%; pest or weed control at 250 g/ha [10]: 60%; plant injury at 15.625 g/ha (corn (Zea mays) [11]): 0%; plant injury at 62.5 g/ha (corn (Zea mays) [11]): 0%; plant injury at 250 g/ha (corn (Zea mays) [11]): 0%; pest or weed control at 15.625 g/ha [12]: 10%; pest or weed control at 62.5 g/ha [12]: 10%; pest or weed control at 250 g/ha [12]: 60%
